Laboratory results as given in US20090197279A1, “MICROTUBULE SYNTHESIS AS A BIOMARKER” (KINEMED, INC., priority 2005, published 2009).

System: primary rat neurons
Assay: Microtubule dynamics in glutamate-stimulated cultures of primary rat neurons
Format: cell-based
Conditions: parallel experiments, data not shown
Description: Rat brain hippocampus neuronal cells were obtained from Cambrex Bio Science (Walkersville, Md.). The neurons were grown in Neurobasal medium supplemented with 2 mM Glutamine, 100 U/ml penicillin/streptomycin- and 2% B27 in a humidified atmosphere of 10% CO2 at 37° C. for 14 days on a poly-D-lysine and laminin coated 10 cm^2 tissue culture dish.
During experimental manipulation of neural connectivity, the dynamic responses of dendritic microtubules to various stimuli are likely to differ from those of axonal shafts or of the cell body. In order to detect such differential responses by use of the invention disclosed herein, we cultured primary neurons from rat brain hippocampi and labeled newly synthesized tubulin by adding 5% ^2H2O in culture media for 24 hours. After separation of tubulin dimers and polymers in cytosolic extracts, we captured axonal growth cone and dendritic microtubules by sequential binding to immunoaffinity columns reactive with tau and MAP2, respectively, leaving only somatic and axonal shaft microtubules in the unbound fraction (FIG. 5A). Tubulin was purified further from each fraction, and label incorporation into Ala was measured by GC/MS (FIG. 5B). […] Free Ala in culture media was >80% equilibrated with ^2H2O (not shown). […]

N[C@@H](CCC(=O)[O-])C(=O)[O-].[K+].[K+] [glutamate, potassium L-glutamate]
microtubule label incorporation pattern compared with in vivo: identical results
